In PMC5570892, “Indole-based perenosins as highly potent HCl transporters and potential anti-cancer agents” (Scientific Reports, 2017):
Where two headings read alike, the source gives them in different places.

Assays:
[1] = 1H NMR titration chloride binding studies; conditions: for Overall association constant β21 for the 2:1 host:guest complex: calculated by multiplying K 11 and K 21; for partial protonation of the imine nitrogen: one mole equivalent of HPF6, DMSO-d6/0.5% H2O; for Association constant of Cl^− in the presence of HPF6 (1 equiv.), 1:1 (K a) / Association constant of Cl^− in the presence of HPF6 (1 equiv.), 2:1, K 11 / Association constant of Cl^− in the presence of HPF6 (1 equiv.), 2:1, K 21: protonated perenosin, TBA-Cl, DMSO-d6/0.5% H2O, 298 K; for Association constant of Cl^− in the presence of HPF6 (1 equiv.), 1:1 (K a): 1:1 binding model; for Association constant of Cl^− in the presence of HPF6 (1 equiv.), 2:1, K 11 / Association constant of Cl^− in the presence of HPF6 (1 equiv.), 2:1, K 21: 2:1 binding model
Protocol: Proton NMR titrations were performed in DMSO-d 6/0.5% H2O, to assess the ability of compounds 1d and 2–8 to bind chloride, added as the tetrabutylammonium (TBA) salt, in solution. […] However, in the presence of one equivalent of HPF6, strong binding to chloride was observed through downfield shifts of the pyrrole-NH, indole-NH and the protonated imine-NH^+. All three resonances were fitted globally to the 1:1 or 2:1 (sandwich) binding models using Bindfit[48].
S8. 1H NMR Titration Binding Studies
S8.1. Equipment and Sample Preparation
1H NMR titrations were performed on a Bruker Avance AVII400 FT -NMR spectrometer with either SEF 1H/D-19F or DUL D/1H-13C, 5 mm z-gradient probes, operating at a frequency of 400 MHz for 1H NMR with the probe temperature maintained at 298 K unless otherwise stated as determined using a variable temperature unit ([…]). For all NMR titrations, a constant host concentration w as maintained (~ 5.0 mM) by using the host solution to dissolve the guest to make the guest stock solution. Over the course of the titration Hamiltonian Microlitre syringes were used to add aliquots of the guest stock solution to the NMR sample of the host solution.
The anions were added as the tetrabutylammonium (TBA) salts after being dried under high vacuum (< 1.0 mmHg) for 24 h. Stock solutions of the host ( ~ 5.0 mM) were prepared in a DMSO -d6/0.5%H2O mixture. In some titrations, protonation of the host species was achieved through the addition of 1 eq. hexafluorophosphoric acid (HPF6) to the host stock solution. The host stock solutions, with or without addition of HPF6, ( 500 μL) were transferred to an air -tight screw-cap NMR sample tube (5 mm ID) and the same host stock solution was used to prepare the standard guest titrant solution containing approximately 100 mM of the TBA-anion salts. T his ensured a constant concentration of the host (~ 5.0 mM) for the duration of the titration experiment.
S8.2. Titration Procedure
Over the course of the titration small aliquots (2 -100 μL) of the standard guest solution were added to the host solution ( ~ 500 μL) in the NMR tube. For ea ch titration 15 -20 data points were collected and at the end of the titration approximately 10 equivalents of the guest anion salt were present.
Upon each addition of the standard guest solution the samples were thoroughly shaken in the NMR tube and then allowed to equilibrate for up to 2 minutes inside the NMR probe before the spectra were taken. Throughout each titration experiment all parameters of the NMR s pectrometer […]
S8.3. Titration Data Fitting
For each 1H NMR titration, all the proton resonances were monitored for changes in chemical shift.
In the case of protonated host species at least one proton resonance was followed and for the neutral host species two or more proton resonances were followed, which allowed several data sets to use in determination of the association constant (Ka). Global fitting takes into account all data sets at the same time and this improves the quality of the nonlinear curve fitting. The supramolecular.org web applet10 was used to fit the collected titration data and allows the use of different binding models to fit the data in the best way. For compounds 1d and 2-8 firstly the 1:1 […]
cooperative or additive, was used. The quality of fit is determined by the covariance of the fit (covfit), which is calculated by dividing the (co)variance of the residual (experimental data − calculated data) with the covariance of the experimental data. A covariance of fit factor (F covfit) can be obtained by dividing the covfir from the 1:1 binding model by the covfit from the 2:1 binding model. Due to the higher number of parameters from the 2:1 binding model an improvement in the covfit (i.e. F covfit)

MDA-MB-231 cells = assay: MTT cell viability assay; assay type: cell-based; conditions: Homo sapiens, error from three repeats in brackets
Protocol: Herein, we carried out further in vitro studies at the University of Barcelona for the full library of perenosins. Single dose screening for cell viability using the methylthiazoletetrazolium (MTT) colorimetric assay over five different cell lines (cancer cells MCF-7, MDA-MB-231, A549 and SW620, and non-cancerous human cells MCF-10A) was conducted.
While perenosin 5, with pentyl substituent at R3, has similar cell viability effects as 1d, bis-indole perenosin 7 with pentyl substituent at R1 has a moderate degree of late onset by a factor of 7.
S11.1 Cell Lines and Culture Conditions
The human cell lines were obtained from the American Type Culture Collection (ATCC, Manassas VA). Breast adenocarcinoma MDA-MB-231 and MCF-7 cells were maintained in DMEM:F12 media (1:1; Biological Industries, Beit Haemek, Israel), and 10 µg/ml insulin and 50 µM sodium pyruvate from Sigma-Aldrich Chemical Co. (St. Louis, MO) were added to MCF-7 cells. Lung adenocarcinoma A549 and colorectal adenocarcinoma SW620 cells were cultured in DMEM media. All were supplemented with 10% foetal bovine serum (FBS; Invitrogen-Life Technologies, Carlsbad, CA) and 100 U/mL penicillin, 100 µg/mL streptomycin and 2 mM L-glutamine, all from Biological Industries.
Mammary epithelial MCF-10A cells were maintained in DMEM:F12 media supplemented with 5% horse serum (Life Technologies), 20 ng/ml EGF, 0.5 µg/ml Hydrocortisone, 100 ng/ml Cholera toxin, 10 µg/ml insulin all from Sigma-Aldrich and 100 U/ml penicillin, 100 µg/ml streptomycin, and 2 mM L- glutamine (Biological Industries). Cells were grown at 37 °C under a 5% CO2 atmosphere.
S11.2 Cell Viability Assays
Cell viability was evaluated using the methylthiazoletetrazolium (MTT) colorimetric assay. Cancer cells (MCF-7, MDA-MB-231, A549 and SW620) or non-cancerous human cells MCF-10A cells were harvested (10^4 cells/well) in 96-well plates in a final volume of 100 µl and allowed to grow overnight.
After 24 h, vehicle solution (DMSO) or experimental compounds were added at 10 µM (single point experiment) or at different ranging concentrations (0.8-100 µM) to the assay plate and were incubated for 24 or 72 h. Then, 10 µl of MTT (5 mg/ml; Sigma-Aldrich) were added and the plates were incubated for 4 h at 37°C. 100 µl of DMSO (Sigma-Aldrich) were added to dissolve crystals and the reading was taken spectrophotometrically at 570 nm using a multi-well plate reader (Multiskan FC, Thermo Scientific, Waltham, MA, USA). Cell viability and inhibitory concentration (IC) values were obtained using GraphPad Prism v5.0 (Graphpad Software, San Diego, CA, USA). All data are shown as the mean value ± standard deviation (S.D.) of three independent experiments.

[2] = MDA-MB-231, 24 h exposure, read-out: IC50 (24 h)
[3] = MDA-MB-231, 72 h exposure, read-out: IC50 (72 h)

Row | Structure (SMILES) | Overall association constant β21 for the 2:1 host:guest complex [1] [M⁻¹] | partial protonation of the imine nitrogen [1] | Association constant of Cl^− in the presence of HPF6 (1 equiv.), 1:1 (K a) [1] [M⁻¹] | Association constant of Cl^− in the presence of HPF6 (1 equiv.), 2:1, K 11 [1] [M⁻¹] | Association constant of Cl^− in the presence of HPF6 (1 equiv.), 2:1, K 21 [1] [M⁻¹] | IC50 (MDA-MB-231 cells; [2]) [µM] | IC50 (MDA-MB-231 cells; [3]) [µM]
1 | CCCCCc1cc2cc(C)cc(/N=C/c3[nH]c4ccccc4c3C)c2[nH]1 [Perenosin 8] | 35500 | ~10% | 142 | 184 | 193 | > 100 | 38
2 | CCCCCc1cc(/N=C/c2[nH]c(C)cc2C)c2[nH]ccc2c1 [Perenosin 1d] | 333000 |  | 605 | 1750 | 190 | 25.2 | 16.6
3 | CCCCCc1cc(/N=C/c2[nH]c3ccccc3c2C)c2[nH]ccc2c1 [Perenosin 7] | 36500 | approximately 20% | 157 | 72 | 507 | 73.8 | 11
4 | CCCCCc1cc2cc(C)cc(/N=C/c3[nH]c(C)c(CCCCC)c3C)c2[nH]1 [Perenosin 6] | 172000 |  | 78300 | 1090 | 158 | > 100 | 4.2
5 | CCCCCc1cc2cc(C(F)(F)F)cc(/N=C/c3[nH]c(C)cc3C)c2[nH]1 [Perenosin 3] | 393000 |  | 3440 | 190 | 2070 | > 100 | 9.5
6 | CCCCCc1c(C)[nH]c(/C=N/c2cc(C)cc3cc[nH]c23)c1C [Perenosin 5] | 4630 |  | 2610 | 331 | 14 | 20.3 | 14
7 | CCCCCc1cc2cc(C)cc(/N=C/c3[nH]c(C)cc3C)c2[nH]1 [Perenosin 2] | 1.18e+06 |  | 2450 | 2500 | 473 | > 100 | 11.3
8 | CCCc1cc2cc(C)cc(/N=C/c3[nH]c(C)cc3C)c2[nH]1 [Perenosin 4] | 468000 |  | 3440 | 1530 | 306 | > 100 | 9.2
